# Tested on: 885512-296-R-J2-PDC complex spheroid growth, % test/control
# Experiment: Anticancer human tumor 885512-296-R-J2-PDC patient-derived breast carcinoma cell line growth inhibition [Asc]
# Conditions: for IC50: curve of first compound; for viability, T/C: stronger effect = lower value
# In short: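 Stromal components (HUVEC and hMSC) are co-assembled with the cancer cells into multicellular spheroids. Drugs are then added singly or paired, at concentrations falling by half-log increments from a clinically achievable maximum, capped at 10 microM without known Cmax.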
# 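Further: spheroids exposed to compounds for seven days.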
# 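Wherever viability, T/C is given: 100% = DMSO vehicle control wells.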
compound,measurement,setting,value
Cc1nc(N2CCC3(CC2)COC(C)C3N)c(CO)nc1Sc1ccnc(N)c1Cl (stereo not given) + Cc1c(S(C)(=O)=O)c(-c2cc(F)cc(N3CCN(c4ccc(NS(=O)(=O)c5ccc(NC(CCN6CCC(C(=O)OCCCP(=O)(O)O)CC6)CSc6ccccc6)c(S(=O)(=O)C(F)(F)F)c5)cc4)CC3)c2)c(-c2ccc(Cl)cc2)n1C(C)C,IC50,second compound 0.1 µM,275 nM
same,IC50,second compound 0.316 µM,275 nM
same,IC50,second compound 1 µM,172 nM
same,IC50,second compound 3.16 µM,167 nM
same,IC50,second compound 10 µM,> 3000 nM
same,"viability, T/C","second compound 0.1 µM, first compound 0.00949 µM",83.7%
same,"viability, T/C","second compound 0.1 µM, first compound 0.03 µM",67.7%
same,"viability, T/C","second compound 0.1 µM, first compound 0.0949 µM",58%
same,"viability, T/C","second compound 0.1 µM, first compound 0.3 µM",50.4%
same,"viability, T/C","second compound 0.1 µM, first compound 0.949 µM",42.1%
same,"viability, T/C","second compound 0.1 µM, first compound 3 µM",32.4%
same,"viability, T/C","second compound 0.316 µM, first compound 0.00949 µM",76.5%
same,"viability, T/C","second compound 0.316 µM, first compound 0.03 µM",63.7%
same,"viability, T/C","second compound 0.316 µM, first compound 0.0949 µM",62.7%
same,"viability, T/C","second compound 0.316 µM, first compound 0.3 µM",46.2%
same,"viability, T/C","second compound 0.316 µM, first compound 0.949 µM",42.8%
same,"viability, T/C","second compound 0.316 µM, first compound 3 µM",37%
same,"viability, T/C","second compound 1 µM, first compound 0.00949 µM",76.7%
same,"viability, T/C","second compound 1 µM, first compound 0.03 µM",60.2%
same,"viability, T/C","second compound 1 µM, first compound 0.0949 µM",59.1%
same,"viability, T/C","second compound 1 µM, first compound 0.3 µM",41.8%
same,"viability, T/C","second compound 1 µM, first compound 0.949 µM",42.6%
same,"viability, T/C","second compound 1 µM, first compound 3 µM",34.7%
same,"viability, T/C","second compound 3.16 µM, first compound 0.00949 µM",94.5%
same,"viability, T/C","second compound 3.16 µM, first compound 0.03 µM",67.4%
same,"viability, T/C","second compound 3.16 µM, first compound 0.0949 µM",56.8%
same,"viability, T/C","second compound 3.16 µM, first compound 0.3 µM",45.4%
same,"viability, T/C","second compound 3.16 µM, first compound 0.949 µM",39.5%
same,"viability, T/C","second compound 3.16 µM, first compound 3 µM",33.4%
same,"viability, T/C","second compound 10 µM, first compound 0.00949 µM",117%
same,"viability, T/C","second compound 10 µM, first compound 0.03 µM",110%
same,"viability, T/C","second compound 10 µM, first compound 0.0949 µM",96.2%
same,"viability, T/C","second compound 10 µM, first compound 0.3 µM",113%
same,"viability, T/C","second compound 10 µM, first compound 0.949 µM",95.9%
same,"viability, T/C","second compound 10 µM, first compound 3 µM",85.9%
